Source: patent US20220251036A1, “DIFLUOROHALOALLYLAMINE SULFONE DERIVATIVE INHIBITORS OF LYSYL OXIDASES, METHODS OF PREPARATION, AND USES THEREOF” (PHARMAXIS LTD., priority 2019, published 2022)
Read-outs that look alike come from different tables or passages of the source.

Columns and labels:
Type in all cases: biochemical
[1] = target: T1, Human recombinant LOXL4 (Homo sapiens, UniProt Q96JB6); experiment: LOXL4 inhibition, Amplex Red oxidation assay
T1 sequence (Q96JB6 25-756): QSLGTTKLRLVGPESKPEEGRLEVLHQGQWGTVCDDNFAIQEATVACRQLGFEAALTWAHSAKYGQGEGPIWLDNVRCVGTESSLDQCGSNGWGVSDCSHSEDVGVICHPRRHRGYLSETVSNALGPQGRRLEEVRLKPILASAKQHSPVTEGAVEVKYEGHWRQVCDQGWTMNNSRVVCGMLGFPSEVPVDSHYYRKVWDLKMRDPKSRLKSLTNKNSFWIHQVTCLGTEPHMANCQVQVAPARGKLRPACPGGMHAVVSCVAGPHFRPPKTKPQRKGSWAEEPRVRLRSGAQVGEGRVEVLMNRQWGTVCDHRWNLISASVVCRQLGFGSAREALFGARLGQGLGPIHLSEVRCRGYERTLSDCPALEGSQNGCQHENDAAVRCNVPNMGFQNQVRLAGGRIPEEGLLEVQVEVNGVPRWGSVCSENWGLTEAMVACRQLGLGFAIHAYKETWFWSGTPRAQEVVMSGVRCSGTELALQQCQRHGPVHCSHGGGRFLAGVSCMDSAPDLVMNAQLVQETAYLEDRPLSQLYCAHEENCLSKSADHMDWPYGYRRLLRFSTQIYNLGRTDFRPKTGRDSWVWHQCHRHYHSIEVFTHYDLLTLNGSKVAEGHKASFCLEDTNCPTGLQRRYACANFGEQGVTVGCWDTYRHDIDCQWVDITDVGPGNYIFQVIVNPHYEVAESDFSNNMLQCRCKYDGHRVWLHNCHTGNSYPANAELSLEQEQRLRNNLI
Method: (§1) LOX and LOXL protein family members can be acquired as recombinant active proteins from commercial sources, or extracted from animal tissues like bovine aorta, tendons, pig skin; or prepared from cell cultures. […] The assay was developed using either 384 or 96 well format. Briefly, in a standard black, clear bottom 384 well plate assay 25 μL of a dilution of any of the isoenzymes and orthologues in 1.2 M urea, 50 mM sodium borate buffer (pH 8.2) were added into each well in the presence of 1 μM mofegiline and 0.5 mM pargyline (to inhibit SSAO and MAO-B and MAO-A, respectively; not necessary if the enzyme is from a recombinant or purified form). Test compounds were dissolved in DMSO and tested in a Concentration Response Curve (CRC) with 11 data points, typically in the micromolar or nanomolar range after incubation with the enzyme for 30 min at 37° C. 25 μL of a reaction mixture containing twice the KM concentration of putrescine (Sigma Aldrich, e.g. 20 mM for LOX and LOXL1 or 10 mM for LOXL2 and 4 mM for LOXL3 and LOXL4), 120 μM Amplex Red (Sigma Aldrich) and 1.5 U/mL horseradish peroxidase (Sigma Aldrich) prepared in 1.2 M urea, 50 mM sodium borate buffer (pH 8.2) were then added to the corresponding wells. The above volumes were doubled in the case of 96 wells plate. The fluorescence (RFU) was read every 2.5 min for 30 min at […] 37° C., excitation 565 nm and emission 590 (Optima; BMG labtech). The slope of the kinetics for each well was calculated using MARS data analysis software (BMG labtech) and this value was used to deduce the IC50 value (Dotmatics). The ability of the inventive compounds to inhibit the amine oxidase activity of LOX and other family members is shown in Table 4.

[2] = target: T2, Bovine LOX (Bos taurus, UniProt P33072); experiment: LOX inhibition, Amplex Red oxidation assay
T2 sequence (P33072 170-418): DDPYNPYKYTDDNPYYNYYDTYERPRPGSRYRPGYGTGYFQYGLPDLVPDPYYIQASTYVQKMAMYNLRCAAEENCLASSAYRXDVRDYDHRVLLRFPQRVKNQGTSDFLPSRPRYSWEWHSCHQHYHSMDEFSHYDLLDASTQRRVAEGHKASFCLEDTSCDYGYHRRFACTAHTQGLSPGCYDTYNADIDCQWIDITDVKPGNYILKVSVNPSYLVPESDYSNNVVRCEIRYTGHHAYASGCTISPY
Method: as §1

[3] = target: T3, Human recombinant LOXL3 (Homo sapiens, UniProt P58215); experiment: LOXL3 inhibition, Amplex Red oxidation assay
T3 sequence (P58215 26-753): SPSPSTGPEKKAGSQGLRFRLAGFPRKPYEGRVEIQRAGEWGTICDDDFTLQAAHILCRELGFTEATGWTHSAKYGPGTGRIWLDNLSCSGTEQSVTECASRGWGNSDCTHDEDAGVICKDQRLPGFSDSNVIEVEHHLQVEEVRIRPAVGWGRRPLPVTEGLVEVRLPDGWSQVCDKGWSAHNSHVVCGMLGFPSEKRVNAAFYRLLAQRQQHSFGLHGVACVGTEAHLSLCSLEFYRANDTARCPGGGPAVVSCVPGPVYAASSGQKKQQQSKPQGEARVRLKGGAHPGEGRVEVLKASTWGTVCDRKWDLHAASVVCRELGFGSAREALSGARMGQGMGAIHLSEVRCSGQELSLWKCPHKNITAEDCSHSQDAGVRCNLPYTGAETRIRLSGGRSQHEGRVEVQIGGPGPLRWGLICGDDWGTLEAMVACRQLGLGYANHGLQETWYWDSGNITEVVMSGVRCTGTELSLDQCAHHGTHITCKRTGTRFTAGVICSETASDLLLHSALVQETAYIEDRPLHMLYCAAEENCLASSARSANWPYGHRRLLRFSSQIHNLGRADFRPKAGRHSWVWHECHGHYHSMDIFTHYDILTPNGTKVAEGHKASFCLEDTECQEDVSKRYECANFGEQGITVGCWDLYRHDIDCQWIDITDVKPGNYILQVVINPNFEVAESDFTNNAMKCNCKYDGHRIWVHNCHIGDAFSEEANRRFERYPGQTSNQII
Method: as §1

[4] = target: T4, Human recombinant LOXL1 (Homo sapiens, UniProt Q08397); experiment: LOXL1 inhibition, Amplex Red oxidation assay
T4 sequence (Q08397 96-574): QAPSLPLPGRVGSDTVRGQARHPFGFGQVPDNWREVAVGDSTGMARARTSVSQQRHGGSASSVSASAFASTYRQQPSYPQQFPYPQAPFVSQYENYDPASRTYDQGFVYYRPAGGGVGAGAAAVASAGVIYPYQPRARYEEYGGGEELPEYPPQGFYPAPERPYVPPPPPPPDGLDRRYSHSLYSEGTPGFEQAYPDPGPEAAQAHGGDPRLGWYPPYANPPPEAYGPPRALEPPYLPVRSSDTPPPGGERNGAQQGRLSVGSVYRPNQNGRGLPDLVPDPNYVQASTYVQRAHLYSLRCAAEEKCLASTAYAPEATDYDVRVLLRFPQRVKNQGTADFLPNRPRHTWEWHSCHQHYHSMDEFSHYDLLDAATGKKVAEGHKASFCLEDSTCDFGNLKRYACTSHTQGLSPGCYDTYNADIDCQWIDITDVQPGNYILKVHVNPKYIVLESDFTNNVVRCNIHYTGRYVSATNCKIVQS
Method: as §1

[5] = incubation with enzyme 30 min at 37° C, read-out: Human recombinant LOXL4 Activity IC50
[6] = incubation with enzyme 30 min at 37° C, read-out: Bovine LOX Activity IC50
[7] = incubation with enzyme 30 min at 37° C, read-out: Human recombinant LOXL3 Activity IC50
[8] = incubation with enzyme 30 min at 37° C, read-out: Human recombinant LOXL1 Activity IC50

| IC50 [1, 5] [nM] | IC50 [2, 6] [nM] | IC50 [3, 7] [nM] | IC50 [4, 8] [nM] | SMILES | IC50 [1] [nM] | IC50 [2] [nM] | IC50 [3] [nM] | IC50 [4] [nM] |
| --- | --- | --- | --- | --- | --- | --- | --- | --- |
| 700 | 4300 | 7400 | 4800 | CNc1ccccc1S(=O)(=O)C(F)(F)/C(F)=C/CN [Compound 4, (Z)-2-((4-amino-1,1,2-trifluorobut-2-en-yl)sulfony1)-N-methylaniline] |  |  |  |  |
| 1100 | 6500 | 5200 | 8700 | NC/C=C(\F)C(F)(F)[S+]([O-])c1ccccc1 (stereo not shown) [Compound 9, (Z)-3,4,4-trifluoro-4-(phenylsulfinyl)but-2-en-1-amine] |  |  |  |  |
| 600 | 8000 | 16400 | 13400 | NC/C=C(\F)C(F)(F)S(=O)(=O)c1cccc2cccnc12 [Compound 2, (Z)-3,4,4-trifluoro-4-(quinolin-8-ylsulfonyl)but-2-en-1-amine] |  |  |  |  |
| 200 | 3500 | 800 | 4600 | CS(=O)(=O)c1cccc(CS(=O)(=O)C(F)(F)/C(F)=C/CN)c1 [Compound 17, (Z)-3,4,4-trifluoro-4-((3-(methylsulfonyl)benzyl)sulfonyl)but-2-en-1-amine] |  |  |  |  |
| 300 | 5100 | 2700 | 7400 | COc1cccc(S(=O)(=O)C(F)(F)/C(F)=C/CN)c1 [Compound 12, (Z)-3,4,4-trifluoro-4-((3-methoxyphenyl)sulfonyl)but-2-en-1-amine] |  |  |  |  |
| 500 | 2500 | 1300 | 4300 | NC/C=C(\F)C(F)(F)S(=O)(=O)C1CCCC1 [Compound 19, (Z)-4-(cyclopentylsulfony1)-3,4,4-trifluorobut-2-en-1-amine] |  |  |  |  |
| 100 | 2500 | 1000 | 3100 | NC/C=C(\F)C(F)(F)S(=O)(=O)Cc1ccccc1 [Compound 8, (Z)-4-(benzylsulfony1)-3,4,4-trifluorobut-2-en-1-amine] |  |  |  |  |
|  |  |  |  | NC/C=C(\F)C(F)(F)S(=O)(=O)c1ccccc1 [Compound 1, (Z)-3,4,4-trifluoro-4-(phenylsulfonyl)but-2-en-1-amine] | 300 | 3700 | 1500 | 3400 |
| 100 | 2700 | 1500 | 2000 | CS(=O)(=O)c1ccc(COc2ccccc2S(=O)(=O)C(F)(F)/C(F)=C/CN)cc1 [Compound 10, (Z)-3,4,4-trifluoro-4-((2-((4-(methylsulfonyl)benzyl)oxy)phenyl)sulfonyl) but-2-en-1-amine] |  |  |  |  |
| 300 | 3500 | 1800 | 5100 | Cc1ccc(S(=O)(=O)C(F)(F)/C(F)=C/CN)cc1 [Compound 6, (Z)-3,4,4-trifluoro-4-tosylbut-2-en-1-amine] |  |  |  |  |
|  | 3800 |  |  | Cc1ccccc1S(=O)(=O)C(F)(F)/C(F)=C/CN [Compound 5, (Z)-3,4,4-trifluoro-4-(o-tolylsulfonyl)but-2-en-1-amine] |  |  |  |  |
| 200 | 4500 | 1200 | 7000 | NC/C=C(\F)C(F)(F)S(=O)(=O)c1cccs1 [Compound 14, (Z)-3,4,4-trifluoro-4-(thiophen-2-ylsulfonyl)but-2-en-1-amine] |  |  |  |  |

| SMILES | IC50 [1, 5] [nM] | IC50 [2, 6] [nM] | IC50 [3, 7] [nM] | IC50 [4, 8] [nM] | IC50 [1] [nM] | IC50 [2] [nM] | IC50 [3] [nM] | IC50 [4] [nM] |
| --- | --- | --- | --- | --- | --- | --- | --- | --- |
| N#CCCN [BAPN, β-aminopropionitrile, reference compound] | 300 | 2200 | 500 | 2500 |  |  |  |  |
